According to patent US20040067507A1, “Liver inflammation predictive genes” (priority 2002, published 2004):
Read-outs that look alike come from different tables or passages of the source.

Tested on: Sprague Dawley rats Crl:CD
Type: in vivo, rat
Excerpt: In addition to the database described and utilized herein, other toxicology gene expression databases may be generated, and used to identify additional liver toxicity biomarkers, which may also be employed in the practice of the liver inflammation prediction methods of the invention. […] An example of compounds, dose levels, liver toxicity classifications and histopathology scores used in the Examples which follow are provided in Table 1. The compounds and dose levels are abbreviated in the Abbreviation Column. The Inflammation Score relates the histopathology liver inflammation, a score of “2” or higher indicates histopathology of increasing severity.
Identification of Correlating Genes: For the purpose of identifying candidate predictive genes, the database preferably includes histopathology scores for each animal which has been exposed to one or more agent(s). […] The scores are numerical scores that reflect the occurrence and severity of histopathological changes. These scores can be adjusted to have similar range to gene expression changes. […] Because the scores are numerical, they are suitable for use with a variety of statistical correlation and similarity measures.
Sprague Dawley rats Crl:CD from Charles River, Raleigh, N.C. were divided into treated rats that receive a specific concentration of the compound (see Table 1) and the control rats that only received the vehicle in which the compound is mixed (e.g., saline).
At specified timepoints (6 h, 24 h and 72 h) after administration (intraperitoneal route) of the compound, a set number of rats (usually 3 control and 3 treated) were euthanized and tissues collected. Each rat was heavily sedated with an overdose of CO2 by inhalation and a maximum amount of blood drawn. Exsanguination of the rat by this drawing of blood kills the rat. The method of collecting the tissues is very important and ensures preserving the quality of the mRNA in the tissues. The body of the rat was then opened up and prosectors rapidly removed the tissues (including liver) and immediately placed them into liquid nitrogen. […] The organs/tissues were then packaged into well-labeled plastic freezer quality bags and stored at −80 degrees until needed for isolation of the mRNA from a portion of the organ/tissue sample.
Correlation with Histopathology Scores: Histopathology scores for each animal (assigned on a compound-dose basis as indicated in Table 1) were entered with gene expression data by using the GeneSpring™ ‘Drawn Gene’ function. Correlations between inflammation histopathology scores and gene expression were conducted with the distance measures listed below: […]

[1] = 30 mg/kg i.p., 72 h, 1=no histopathology, 2 or higher=increasing severity
[2] = 0.25 ml/kg i.p., 72 h, 1=no histopathology, 2 or higher=increasing severity
[3] = 1 ml/kg i.p., 72 h, 1=no histopathology, 2 or higher=increasing severity
[4] = 20 mg/kg i.p., 72 h, 1=no histopathology, 2 or higher=increasing severity
[5] = 75 mg/kg i.p., 72 h, 1=no histopathology, 2 or higher=increasing severity
[6] = 2 mg/kg i.p., 72 h, 1=no histopathology, 2 or higher=increasing severity
[7] = 8 mg/kg i.p., 72 h, 1=no histopathology, 2 or higher=increasing severity
[8] = 5 mg/kg i.p., 72 h, 1=no histopathology, 2 or higher=increasing severity
[9] = Sprague Dawley Crl:CD, rat, in vivo
[10] = Sprague Dawley Crl:CD, rat, in vivo, ip
[11] = 13 mg/kg i.p., 72 h, 1=no histopathology, 2 or higher=increasing severity
[12] = 50 mg/kg i.p., 72 h, 1=no histopathology, 2 or higher=increasing severity
[13] = 0.5 mg/kg i.p., 72 h, 1=no histopathology, 2 or higher=increasing severity
[14] = 2.5 mg/kg i.p., 72 h, 1=no histopathology, 2 or higher=increasing severity
[15] = 10 mg/kg i.p., 72 h, 1=no histopathology, 2 or higher=increasing severity
[16] = 14 mg/kg i.p., 72 h, 1=no histopathology, 2 or higher=increasing severity
[17] = 80 mg/kg i.p., 72 h, 1=no histopathology, 2 or higher=increasing severity
[18] = 200 mg/kg i.p., 72 h, 1=no histopathology, 2 or higher=increasing severity
[19] = 250 mg/kg i.p., 72 h, 1=no histopathology, 2 or higher=increasing severity

With `c1ccc2c(c1)cc1ccc3cccc4ccc2c1c34` [benzo[a]pyrene] the “Liver Inflammation” value (30 mg/kg i.p., 72 h) was “no”, the “Liver Necrosis” value (30 mg/kg i.p., 72 h) was “no” and the “Inflamm. Score” value [1] was 1. The “Necr. Score” value [1] was 1.

For `ClC(Cl)(Cl)Cl` [carbon tetrachloride], the “Liver Inflammation” value (0.25 ml/kg i.p., 72 h) was “no”, the “Liver Necrosis” value (0.25 ml/kg i.p., 72 h) was “yes” and the “Inflamm. Score” value [2] was 1. For the same compound, the “Necr. Score” value [2] was 3, the “Liver Inflammation” value (1 ml/kg i.p., 72 h) was “yes” and the “Liver Necrosis” value (1 ml/kg i.p., 72 h) was “yes”. The “Inflamm. Score” value [3] was 3, the “Necr. Score” value [3] was 6 and the “liver necrosis or necrosis with inflammation” value (“liver necrosis or necrosis” below) (high dose) was “produced liver necrosis or necrosis with inflammation”. For the same compound, the “liver necrosis or necrosis” value (low dose) was “not at the low dose”.

In the case of `CN(N=O)C(=O)N[C@H]1C(O)O[C@H](CO)[C@@H](O)[C@@H]1O` (mixture of isomers) [streptozotocin], the “Liver Inflammation” value (20 mg/kg i.p., 72 h) is reported as “no”, the “Liver Necrosis” value (20 mg/kg i.p., 72 h) is reported as “no” and the “Inflamm. Score” value [4] is reported as 1. For the same compound, the “Necr. Score” value [4] was 1, the “Liver Inflammation” value (75 mg/kg i.p., 72 h) was “no” and the “Liver Necrosis” value (75 mg/kg i.p., 72 h) was “no”. For the same compound, the “Inflamm. Score” value [5] was 1 and the “Necr. Score” value [5] was 1.

With lipopolysaccharide the “Liver Inflammation” value (2 mg/kg i.p., 72 h) was “no”, the “Liver Necrosis” value (2 mg/kg i.p., 72 h) was “no” and the “Inflamm. Score” value [6] was 1. For the same compound, the “Necr. Score” value [6] was 1, the “Liver Inflammation” value (8 mg/kg i.p., 72 h) was “yes” and the “Liver Necrosis” value (8 mg/kg i.p., 72 h) was “yes”. For the same compound, the “Inflamm. Score” value [7] was 2, the “Necr. Score” value [7] was 6 and the “liver necrosis or necrosis” value (high dose) was “produced liver necrosis or necrosis with inflammation”. For the same compound, the “liver necrosis or necrosis” value (low dose) was “not at the low dose”.

For `C[C@@H]1[C@H](O)[C@@H](C)/C=C/C=C/C=C/C=C/C=C/C=C/C=C/[C@H](O[C@@H]2O[C@H](C)[C@@H](O)[C@H](N)[C@@H]2O)C[C@@H]2O[C@](O)(C[C@@H](O)C[C@@H](O)[C@H](O)CC[C@@H](O)C[C@@H](O)CC(=O)O[C@H]1C)C[C@H](O)[C@H]2C(=O)O` [amphotericin B], the “Liver Inflammation” value (5 mg/kg i.p., 72 h) was “no”, the “Liver Necrosis” value (5 mg/kg i.p., 72 h) was “no” and the “Inflamm. Score” value [8] was 1. The “Necr. Score” value [8] was 1, the “Liver Inflammation” value (20 mg/kg i.p., 72 h) was “no” and the “Liver Necrosis” value (20 mg/kg i.p., 72 h) was “no”. For the same compound, the “Inflamm. Score” value [4] was 1 and the “Necr. Score” value [4] was 1.

With `C=CCN1CC[C@]23c4c5ccc(O)c4O[C@H]2C(=O)CC[C@@]3(O)[C@H]1C5` [naloxone] the “Inflamm. Score” value [9] was 1, the “Necr. Score” value [9] was 1 and the “Inflamm. Score” value [10] was 1. The “Necr. Score” value [10] was 1, the “Liver Inflammation” value (rat, in vivo) was “no” and the “Liver Necrosis” value (rat, in vivo) was “no”. The “Liver Inflammation” value (rat, in vivo, ip) was “no” and the “Liver Necrosis” value (rat, in vivo, ip) was “no”.

With `CN(C)[C@@H]1C(O)=C(C(N)=O)C(=O)[C@@]2(O)C(O)=C3C(=O)c4c(O)cccc4[C@@](C)(O)[C@H]3C[C@@H]12` [tetracycline] the “Inflamm. Score” value [9] was 1 and the “Liver Inflammation” value (rat, in vivo) was “no”.

For `O=c1[nH]cc(F)c(=O)[nH]1` [5-fluorouracil], the “Liver Inflammation” value (13 mg/kg i.p., 72 h) was “no”, the “Liver Necrosis” value (13 mg/kg i.p., 72 h) was “no” and the “Inflamm. Score” value [11] was 1. The “Necr. Score” value [11] was 1, the “Liver Inflammation” value (50 mg/kg i.p., 72 h) was “no” and the “Liver Necrosis” value (50 mg/kg i.p., 72 h) was “no”. The “Inflamm. Score” value [12] was 1 and the “Necr. Score” value [12] was 1.

With `CC(=O)N1CCN(c2ccc(OCC3COC(Cn4ccnc4)(c4ccc(Cl)cc4Cl)O3)cc2)CC1` (stereo not shown) [ketoconazole] the “Inflamm. Score” value [9] was 1, the “Necr. Score” value [9] was 1 and the “Liver Inflammation” value (rat, in vivo) was “no”. The “Liver Necrosis” value (rat, in vivo) was “no”.

For `C[C@@H]1C[C@@H]([C@H](O)CC2CC(=O)NC(=O)C2)C(=O)[C@@H](C)C1` [cycloheximide], the “Liver Inflammation” value (0.5 mg/kg i.p., 72 h) was “no”, the “Liver Necrosis” value (0.5 mg/kg i.p., 72 h) was “no” and the “Inflamm. Score” value [13] was 1. The “Necr. Score” value [13] was 1, the “Liver Inflammation” value (2 mg/kg i.p., 72 h) was “no” and the “Liver Necrosis” value (2 mg/kg i.p., 72 h) was “no”. The “Inflamm. Score” value [6] was 1 and the “Necr. Score” value [6] was 1.

In the case of `O=C(O)c1cc(-c2ccc(F)cc2F)ccc1O` [diflunisal], the “Inflamm. Score” value [9] is reported as 1, the “Necr. Score” value [9] is reported as 1 and the “Liver Inflammation” value (rat, in vivo) is reported as “no”. The “Liver Necrosis” value (rat, in vivo) was “no”.

`C[C@@H]1C[C@H]2[C@@H]3CCC4=CC(=O)C=C[C@]4(C)[C@@]3(F)[C@@H](O)C[C@]2(C)[C@@]1(O)C(=O)CO` [dexamethasone] was tested, and the “Inflamm. Score” value [9] was 1, the “Necr. Score” value [9] was 1 and the “Liver Inflammation” value (rat, in vivo) was “no”. The “Liver Necrosis” value (rat, in vivo) was “no”.

With `N.N.[Cl][Pt][Cl]` [cisplatin] the “Liver Inflammation” value (2.5 mg/kg i.p., 72 h) was “no”, the “Liver Necrosis” value (2.5 mg/kg i.p., 72 h) was “no” and the “Inflamm. Score” value [14] was 1. For the same compound, the “Necr. Score” value [14] was 1, the “Liver Inflammation” value (10 mg/kg i.p., 72 h) was “no” and the “Liver Necrosis” value (10 mg/kg i.p., 72 h) was “no”. The “Inflamm. Score” value [15] was 1 and the “Necr. Score” value [15] was 1.

For `CS(=O)(=O)OCCCCOS(C)(=O)=O` [busulfan], the “Liver Inflammation” value (14 mg/kg i.p., 72 h) was “no”, the “Liver Necrosis” value (14 mg/kg i.p., 72 h) was “no” and the “Inflamm. Score” value [16] was 1. The “Necr. Score” value [16] was 1.

`NNc1ccccc1` [phenylhydrazine] was tested, and the “Liver Inflammation” value (20 mg/kg i.p., 72 h) was “no”, the “Liver Necrosis” value (20 mg/kg i.p., 72 h) was “no” and the “Inflamm. Score” value [4] was 1. For the same compound, the “Necr. Score” value [4] was 1, the “Liver Inflammation” value (80 mg/kg i.p., 72 h) was “no” and the “Liver Necrosis” value (80 mg/kg i.p., 72 h) was “no”. For the same compound, the “Inflamm. Score” value [17] was 1 and the “Necr. Score” value [17] was 1.

In the case of `NNC(=O)c1ccncc1` [isoniazid], the “Liver Inflammation” value (50 mg/kg i.p., 72 h) is reported as “no”, the “Liver Necrosis” value (50 mg/kg i.p., 72 h) is reported as “no” and the “Inflamm. Score” value [12] is reported as 1. For the same compound, the “Necr. Score” value [12] was 1, the “Liver Inflammation” value (200 mg/kg i.p., 72 h) was “no” and the “Liver Necrosis” value (200 mg/kg i.p., 72 h) was “no”. For the same compound, the “Inflamm. Score” value [18] was 1 and the “Necr. Score” value [18] was 1.

`CCOC(=O)C(C)(C)Oc1ccc(Cl)cc1` [clofibrate] was tested, and the “Liver Inflammation” value (75 mg/kg i.p., 72 h) was “no”, the “Liver Necrosis” value (75 mg/kg i.p., 72 h) was “no” and the “Inflamm. Score” value [5] was 1. The “Necr. Score” value [5] was 1, the “Liver Inflammation” value (250 mg/kg i.p., 72 h) was “no” and the “Liver Necrosis” value (250 mg/kg i.p., 72 h) was “no”. The “Inflamm. Score” value [19] was 1 and the “Necr. Score” value [19] was 1.

In the case of `O=P1(N(CCCl)CCCl)NCCCO1` (stereo not shown) [cyclophosphamide], the “Inflamm. Score” value [9] is reported as 1, the “Necr. Score” value [9] is reported as 1 and the “Liver Inflammation” value (rat, in vivo) is reported as “no”. For the same compound, the “Liver Necrosis” value (rat, in vivo) was “no”.
